The results in this text go back to US10344060B2 (priority 2013, dated 2019).

Where only a bound is given, the exact number is not on record here.

In general, IC50 refers to the concentration that gives 50% inhibition.

What all share (assay): cell-based
One assay deals with hNav1.4 (Homo sapiens, UniProt P35499). The format is cell-based. The conditions noted are these: Table 6; for IC50: IonWorks Quattro, read-out: IC50 (μM) Nav1.4; for Nav1.4/Nav1.7: ratio of IonWorks Quattro IC50 values.
For the next assay, the target named is hNav1.5 (Homo sapiens, UniProt Q14524). The conditions noted are these: IonWorks Quattro; Table 6; read-out: IC50 (μM) Nav1.5. Background: The patch-clamp technique gives a direct electrical read-out from membranes.
The target of a further assay is hNav1.7 (Homo sapiens, UniProt Q15858). The conditions noted are these: read-out: IC50 (μM) Nav1.7.
The target of a further assay is hNav1.3 (Homo sapiens, UniProt Q9NY46). Conditions: IonWorks Quattro; Table 6; read-out: IC50 (μM) Nav1.3.
hNav1.3, sequence (Q9NY46 whole entry): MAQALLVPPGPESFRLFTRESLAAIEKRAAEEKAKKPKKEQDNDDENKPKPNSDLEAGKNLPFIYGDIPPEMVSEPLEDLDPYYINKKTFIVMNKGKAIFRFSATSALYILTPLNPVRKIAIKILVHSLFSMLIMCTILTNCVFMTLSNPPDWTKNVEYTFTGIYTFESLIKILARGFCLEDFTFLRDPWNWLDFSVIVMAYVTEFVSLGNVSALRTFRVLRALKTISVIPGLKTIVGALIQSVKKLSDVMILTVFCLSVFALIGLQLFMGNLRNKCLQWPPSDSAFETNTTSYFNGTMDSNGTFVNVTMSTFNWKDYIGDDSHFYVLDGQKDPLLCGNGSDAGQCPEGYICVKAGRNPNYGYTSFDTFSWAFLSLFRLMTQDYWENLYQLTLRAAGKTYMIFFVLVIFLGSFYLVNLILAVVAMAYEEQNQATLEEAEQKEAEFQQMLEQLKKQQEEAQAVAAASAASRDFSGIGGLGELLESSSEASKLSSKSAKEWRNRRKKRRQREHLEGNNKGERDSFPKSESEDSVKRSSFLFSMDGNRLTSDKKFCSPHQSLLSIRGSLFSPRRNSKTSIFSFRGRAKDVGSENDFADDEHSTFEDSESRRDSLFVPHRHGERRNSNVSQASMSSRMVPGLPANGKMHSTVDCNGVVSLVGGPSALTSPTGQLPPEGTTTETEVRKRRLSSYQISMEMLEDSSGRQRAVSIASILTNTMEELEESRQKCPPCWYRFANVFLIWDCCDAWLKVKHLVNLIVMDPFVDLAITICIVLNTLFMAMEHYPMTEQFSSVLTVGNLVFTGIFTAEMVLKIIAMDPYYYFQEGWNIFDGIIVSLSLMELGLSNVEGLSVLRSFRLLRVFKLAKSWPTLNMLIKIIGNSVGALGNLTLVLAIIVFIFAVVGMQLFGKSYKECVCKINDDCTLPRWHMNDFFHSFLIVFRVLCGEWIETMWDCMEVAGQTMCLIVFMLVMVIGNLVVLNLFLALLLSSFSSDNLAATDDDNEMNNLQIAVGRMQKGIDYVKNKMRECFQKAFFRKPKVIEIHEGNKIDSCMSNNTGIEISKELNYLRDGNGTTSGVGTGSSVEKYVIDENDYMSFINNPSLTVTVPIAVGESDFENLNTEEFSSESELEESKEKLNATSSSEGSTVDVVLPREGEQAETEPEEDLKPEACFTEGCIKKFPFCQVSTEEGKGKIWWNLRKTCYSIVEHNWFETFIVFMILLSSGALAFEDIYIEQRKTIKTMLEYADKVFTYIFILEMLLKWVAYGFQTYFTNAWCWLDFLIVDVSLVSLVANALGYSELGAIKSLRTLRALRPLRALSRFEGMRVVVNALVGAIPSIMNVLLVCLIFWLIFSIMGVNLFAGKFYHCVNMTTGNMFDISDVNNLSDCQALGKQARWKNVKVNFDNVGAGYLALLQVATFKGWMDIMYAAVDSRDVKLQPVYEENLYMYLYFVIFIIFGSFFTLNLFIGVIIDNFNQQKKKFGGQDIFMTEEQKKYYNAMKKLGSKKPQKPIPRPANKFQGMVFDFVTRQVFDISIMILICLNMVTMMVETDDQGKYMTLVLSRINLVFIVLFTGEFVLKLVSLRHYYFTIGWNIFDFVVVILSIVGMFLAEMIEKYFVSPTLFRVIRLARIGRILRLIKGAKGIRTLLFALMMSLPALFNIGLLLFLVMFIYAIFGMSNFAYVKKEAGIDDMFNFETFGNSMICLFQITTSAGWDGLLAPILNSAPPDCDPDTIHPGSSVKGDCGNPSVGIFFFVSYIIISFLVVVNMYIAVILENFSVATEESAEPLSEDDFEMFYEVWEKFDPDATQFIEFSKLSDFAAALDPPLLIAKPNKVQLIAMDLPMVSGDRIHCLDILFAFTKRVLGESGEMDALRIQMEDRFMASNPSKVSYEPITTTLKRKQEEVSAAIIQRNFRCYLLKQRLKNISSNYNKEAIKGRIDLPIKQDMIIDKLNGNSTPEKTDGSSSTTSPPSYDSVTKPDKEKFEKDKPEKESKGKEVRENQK

hNav1.5, sequence (Q14524 whole entry): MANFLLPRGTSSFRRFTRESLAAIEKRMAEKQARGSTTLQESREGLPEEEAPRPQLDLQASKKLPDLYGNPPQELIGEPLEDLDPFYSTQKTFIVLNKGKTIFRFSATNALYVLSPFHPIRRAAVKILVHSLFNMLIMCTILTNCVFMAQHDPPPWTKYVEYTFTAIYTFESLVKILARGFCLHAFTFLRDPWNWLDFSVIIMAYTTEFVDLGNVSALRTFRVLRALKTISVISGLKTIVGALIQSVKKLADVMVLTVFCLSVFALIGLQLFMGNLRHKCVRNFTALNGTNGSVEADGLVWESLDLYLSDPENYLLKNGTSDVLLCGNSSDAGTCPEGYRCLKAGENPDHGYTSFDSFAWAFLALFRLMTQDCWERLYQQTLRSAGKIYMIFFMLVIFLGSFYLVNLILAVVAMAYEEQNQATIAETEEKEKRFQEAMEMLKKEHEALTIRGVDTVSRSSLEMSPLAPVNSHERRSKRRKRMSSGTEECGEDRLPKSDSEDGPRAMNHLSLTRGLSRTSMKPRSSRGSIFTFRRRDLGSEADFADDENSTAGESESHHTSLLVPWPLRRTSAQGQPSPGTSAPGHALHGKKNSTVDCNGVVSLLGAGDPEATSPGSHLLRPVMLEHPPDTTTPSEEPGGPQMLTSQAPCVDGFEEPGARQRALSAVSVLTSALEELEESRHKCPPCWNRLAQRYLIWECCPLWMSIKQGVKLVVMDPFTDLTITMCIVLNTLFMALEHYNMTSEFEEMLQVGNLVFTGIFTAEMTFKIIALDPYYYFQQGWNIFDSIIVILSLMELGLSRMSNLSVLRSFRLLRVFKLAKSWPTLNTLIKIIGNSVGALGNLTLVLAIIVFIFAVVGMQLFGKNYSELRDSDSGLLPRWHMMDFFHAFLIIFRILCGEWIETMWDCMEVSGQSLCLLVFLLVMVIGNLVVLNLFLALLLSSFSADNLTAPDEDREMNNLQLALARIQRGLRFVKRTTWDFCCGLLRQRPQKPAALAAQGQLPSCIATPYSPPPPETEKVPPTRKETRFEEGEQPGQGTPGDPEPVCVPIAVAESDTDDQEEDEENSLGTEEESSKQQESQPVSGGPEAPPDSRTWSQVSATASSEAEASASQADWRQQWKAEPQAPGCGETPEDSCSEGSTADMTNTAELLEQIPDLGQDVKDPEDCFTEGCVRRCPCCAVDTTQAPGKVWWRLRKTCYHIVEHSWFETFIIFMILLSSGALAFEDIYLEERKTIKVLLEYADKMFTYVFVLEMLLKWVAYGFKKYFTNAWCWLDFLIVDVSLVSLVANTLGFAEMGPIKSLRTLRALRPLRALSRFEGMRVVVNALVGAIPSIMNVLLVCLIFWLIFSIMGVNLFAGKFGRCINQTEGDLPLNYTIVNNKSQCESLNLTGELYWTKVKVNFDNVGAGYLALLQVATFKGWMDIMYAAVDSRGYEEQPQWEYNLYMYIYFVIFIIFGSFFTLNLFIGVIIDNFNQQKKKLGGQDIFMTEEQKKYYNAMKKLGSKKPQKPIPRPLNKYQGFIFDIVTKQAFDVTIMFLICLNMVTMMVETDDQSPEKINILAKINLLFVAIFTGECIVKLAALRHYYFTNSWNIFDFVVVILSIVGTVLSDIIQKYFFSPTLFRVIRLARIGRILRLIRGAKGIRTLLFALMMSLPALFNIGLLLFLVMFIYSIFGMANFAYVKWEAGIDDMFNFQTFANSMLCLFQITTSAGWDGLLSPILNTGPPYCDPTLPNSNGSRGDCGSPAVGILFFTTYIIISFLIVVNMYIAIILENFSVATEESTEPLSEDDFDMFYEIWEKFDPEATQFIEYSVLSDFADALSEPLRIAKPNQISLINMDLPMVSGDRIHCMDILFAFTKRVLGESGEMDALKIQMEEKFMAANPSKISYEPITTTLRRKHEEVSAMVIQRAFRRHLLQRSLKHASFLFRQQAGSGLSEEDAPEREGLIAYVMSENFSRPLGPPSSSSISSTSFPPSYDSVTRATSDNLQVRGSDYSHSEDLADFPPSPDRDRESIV

With `CC[C@H](C)[C@H](NC(=O)[C@H](CCCCN)NC(=O)[C@H](CCCNC(=N)N)NC(=O)[C@@H]1CSSC[C@@H]2NC(=O)[C@H](C)NC(=O)[C@H](CCCNC(=N)N)NC(=O)[C@H](CCCCN)NC(=O)[C@H](CO)NC(=O)[C@H](CC(=O)O)NC(=O)[C@@H]3CSSC[C@H](NC(=O)[C@H](CCCNC(=N)N)NC(=O)[C@H](CC(C)C)NC(=O)CNC(=O)[C@H](CCC(=O)O)NC(=O)[C@H](CSSC[C@H](NC(=O)[C@@H](N)Cc4ccc(O)cc4)C(=O)N[C@@H](CCC(N)=O)C(=O)N[C@@H](CCCCN)C(=O)N[C@@H](Cc4c[nH]c5ccccc45)C(=O)N[C@@H](CCSC)C(=O)N[C@@H](Cc4c[nH]c5ccccc45)C(=O)N[C@@H]([C@@H](C)O)C(=O)N3)NC2=O)C(=O)N[C@@H](CCCCN)C(=O)N[C@@H](CC(C)C)C(=O)N[C@@H](Cc2c[nH]c3ccccc23)C(=O)N1)C(=O)N[C@@H](CCCCN)C(N)=O` [compound 89], the IC50 at hNav1.4 was 1.3 µM; on hNav1.5 it was greater than 5 µM; on hNav1.7, 0.11 µM; at hNav1.3 it was 2.4 µM. The Nav1.4/Nav1.7 at hNav1.4 was 11.
Consider `CC[C@H](C)[C@H](NC(=O)[C@@H](NC(=O)[C@H](CCCCN)NC(=O)[C@H](CCCNC(=N)N)NC(=O)[C@@H]1CSSC[C@@H]2NC(=O)[C@H](C)NC(=O)[C@H](CCCNC(=N)N)NC(=O)[C@H](CCCCN)NC(=O)[C@H](CO)NC(=O)[C@H](CC(=O)O)NC(=O)[C@@H]3CSSC[C@H](NC(=O)[C@H](CCCNC(=N)N)NC(=O)[C@H](CC(C)C)NC(=O)CNC(=O)[C@H](CCC(=O)O)NC(=O)[C@H](CSSC[C@H](NC(=O)[C@@H](N)CCCNC(=N)N)C(=O)N[C@@H](CCC(N)=O)C(=O)N[C@@H](CCCCN)C(=O)N[C@@H](Cc4c[nH]c5ccccc45)C(=O)N[C@@H](CCSC)C(=O)N[C@@H](Cc4c[nH]c5ccccc45)C(=O)N[C@@H]([C@@H](C)O)C(=O)N3)NC2=O)C(=O)N[C@@H](CCCCN)C(=O)N[C@@H](CC(C)C)C(=O)N[C@@H](Cc2c[nH]c3ccccc23)C(=O)N1)[C@@H](C)CC)C(N)=O` [compound 90], for which the IC50 was determined as 0.12 µM on hNav1.4, 1.8 µM at hNav1.5, 0.005 µM at hNav1.7 and 0.04 µM on hNav1.3. Further, the Nav1.4/Nav1.7 on hNav1.4 is recorded as 24.
In the same order, the values of `CC[C@H](C)[C@H](NC(=O)[C@@H](NC(=O)[C@H](CCCCN)NC(=O)[C@H](CCCNC(=N)N)NC(=O)[C@@H]1CSSC[C@@H]2NC(=O)[C@H](C)NC(=O)[C@H](CCCNC(=N)N)NC(=O)[C@H](CCCCN)NC(=O)[C@H](CO)NC(=O)[C@H](CC(=O)O)NC(=O)[C@@H]3CSSC[C@H](NC(=O)[C@H](CCCNC(=N)N)NC(=O)[C@H](CC(C)C)NC(=O)CNC(=O)[C@H](CCC(=O)O)NC(=O)[C@H](CSSC[C@H](NC(=O)[C@@H](N)Cc4ccc(O)cc4)C(=O)N[C@@H](CCCNC(=N)N)C(=O)N[C@@H](CCCCN)C(=O)N[C@@H](Cc4c[nH]c5ccccc45)C(=O)N[C@@H](CCSC)C(=O)N[C@@H](Cc4c[nH]c5ccccc45)C(=O)N[C@@H]([C@@H](C)O)C(=O)N3)NC2=O)C(=O)N[C@@H](CCCCN)C(=O)N[C@@H](CC(C)C)C(=O)N[C@@H](Cc2c[nH]c3ccccc23)C(=O)N1)[C@@H](C)CC)C(N)=O` [compound 91] are 0.14 µM, 3.2 µM, 0.025 µM, 0.06 µM and 6.
For `CC[C@H](C)[C@H](NC(=O)[C@@H](NC(=O)[C@H](CCCCN)NC(=O)[C@H](CCCNC(=N)N)NC(=O)[C@@H]1CSSC[C@@H]2NC(=O)[C@H](C)NC(=O)[C@H](CCCNC(=N)N)NC(=O)[C@H](CCCCN)NC(=O)[C@H](CO)NC(=O)[C@H](CC(=O)O)NC(=O)[C@@H]3CSSC[C@H](NC(=O)[C@H](CCCNC(=N)N)NC(=O)[C@H](CC(C)C)NC(=O)CNC(=O)[C@H](CCC(=O)O)NC(=O)[C@H](CSSC[C@H](NC(=O)[C@@H](N)Cc4ccc(O)cc4)C(=O)N[C@@H](CCC(N)=O)C(=O)N[C@@H](CCCNC(=N)N)C(=O)N[C@@H](Cc4c[nH]c5ccccc45)C(=O)N[C@@H](CCSC)C(=O)N[C@@H](Cc4c[nH]c5ccccc45)C(=O)N[C@@H]([C@@H](C)O)C(=O)N3)NC2=O)C(=O)N[C@@H](CCCCN)C(=O)N[C@@H](CC(C)C)C(=O)N[C@@H](Cc2c[nH]c3ccccc23)C(=O)N1)[C@@H](C)CC)C(N)=O` [compound 92] the same measures were 0.16 µM, 2 µM, 0.014 µM, 0.07 µM and 11.
Turning to `CC[C@H](C)[C@H](NC(=O)[C@@H](NC(=O)[C@H](CCCCN)NC(=O)[C@H](CCCNC(=N)N)NC(=O)[C@@H]1CSSC[C@@H]2NC(=O)[C@H](C)NC(=O)[C@H](CCCNC(=N)N)NC(=O)[C@H](CCCCN)NC(=O)[C@H](CO)NC(=O)[C@H](CC(=O)O)NC(=O)[C@@H]3CSSC[C@H](NC(=O)[C@H](CCCNC(=N)N)NC(=O)[C@H](CC(C)C)NC(=O)CNC(=O)[C@H](CCC(=O)O)NC(=O)[C@H](CSSC[C@H](NC(=O)[C@@H](N)Cc4ccc(O)cc4)C(=O)N[C@@H](CCC(N)=O)C(=O)N[C@@H](CCCCN)C(=O)N[C@@H](Cc4c[nH]c5ccccc45)C(=O)N[C@@H](CCSC)C(=O)N[C@@H](CCCNC(=N)N)C(=O)N[C@@H]([C@@H](C)O)C(=O)N3)NC2=O)C(=O)N[C@@H](CCCCN)C(=O)N[C@@H](CC(C)C)C(=O)N[C@@H](Cc2c[nH]c3ccccc23)C(=O)N1)[C@@H](C)CC)C(N)=O` [compound 95], the IC50 at hNav1.4 was 0.4 µM; at hNav1.5, greater than 5 µM; on hNav1.7 it was 0.053 µM; at hNav1.3 it was 0.08 µM. On hNav1.4, the Nav1.4/Nav1.7 came out at 8.
For `CC[C@H](C)[C@H](NC(=O)[C@@H](NC(=O)[C@H](CCCCN)NC(=O)[C@H](CCCNC(=N)N)NC(=O)[C@@H]1CSSC[C@@H]2NC(=O)[C@H](C)NC(=O)[C@H](CCCNC(=N)N)NC(=O)[C@H](CCCCN)NC(=O)[C@H](CO)NC(=O)[C@H](CC(=O)O)NC(=O)[C@@H]3CSSC[C@H](NC(=O)[C@H](CCCNC(=N)N)NC(=O)[C@H](CC(C)C)NC(=O)CNC(=O)[C@H](CCC(=O)O)NC(=O)[C@H](CSSC[C@H](NC(=O)[C@@H](N)Cc4ccc(O)cc4)C(=O)N[C@@H](CCC(N)=O)C(=O)N[C@@H](CCCCN)C(=O)N[C@@H](Cc4c[nH]c5ccccc45)C(=O)N[C@@H](CCSC)C(=O)N[C@@H](Cc4c[nH]c5ccccc45)C(=O)N[C@@H](CCCNC(=N)N)C(=O)N3)NC2=O)C(=O)N[C@@H](CCCCN)C(=O)N[C@@H](CC(C)C)C(=O)N[C@@H](Cc2c[nH]c3ccccc23)C(=O)N1)[C@@H](C)CC)C(N)=O` [compound 96] the same measures were 0.14 µM, 1.7 µM, 0.018 µM, 0.05 µM and 7.
With `CC[C@H](C)[C@H](NC(=O)[C@@H](NC(=O)[C@H](CCCCN)NC(=O)[C@H](CCCNC(=N)N)NC(=O)[C@@H]1CSSC[C@@H]2NC(=O)[C@H](C)NC(=O)[C@H](CCCNC(=N)N)NC(=O)[C@H](CCCCN)NC(=O)[C@H](CCCNC(=N)N)NC(=O)[C@H](CC(=O)O)NC(=O)[C@@H]3CSSC[C@H](NC(=O)[C@H](CCCNC(=N)N)NC(=O)[C@H](CC(C)C)NC(=O)CNC(=O)[C@H](CCC(=O)O)NC(=O)[C@H](CSSC[C@H](NC(=O)[C@@H](N)Cc4ccc(O)cc4)C(=O)N[C@@H](CCC(N)=O)C(=O)N[C@@H](CCCCN)C(=O)N[C@@H](Cc4c[nH]c5ccccc45)C(=O)N[C@@H](CCSC)C(=O)N[C@@H](Cc4c[nH]c5ccccc45)C(=O)N[C@@H]([C@@H](C)O)C(=O)N3)NC2=O)C(=O)N[C@@H](CCCCN)C(=O)N[C@@H](CC(C)C)C(=O)N[C@@H](Cc2c[nH]c3ccccc23)C(=O)N1)[C@@H](C)CC)C(N)=O` [compound 98], the IC50 stood at 0.09 µM on hNav1.4, 0.86 µM at hNav1.5, 0.007 µM on hNav1.7 and 0.03 µM at hNav1.3. Besides, the Nav1.4/Nav1.7 at hNav1.4 was found to be 12.
In the same order, the values of `CC[C@H](C)[C@H](NC(=O)[C@@H](NC(=O)[C@H](CCCCN)NC(=O)[C@H](CCCNC(=N)N)NC(=O)[C@@H]1CSSC[C@@H]2NC(=O)[C@H](C)NC(=O)[C@H](CCCNC(=N)N)NC(=O)[C@H](CCCNC(=N)N)NC(=O)[C@H](CO)NC(=O)[C@H](CC(=O)O)NC(=O)[C@@H]3CSSC[C@H](NC(=O)[C@H](CCCNC(=N)N)NC(=O)[C@H](CC(C)C)NC(=O)CNC(=O)[C@H](CCC(=O)O)NC(=O)[C@H](CSSC[C@H](NC(=O)[C@@H](N)Cc4ccc(O)cc4)C(=O)N[C@@H](CCC(N)=O)C(=O)N[C@@H](CCCCN)C(=O)N[C@@H](Cc4c[nH]c5ccccc45)C(=O)N[C@@H](CCSC)C(=O)N[C@@H](Cc4c[nH]c5ccccc45)C(=O)N[C@@H]([C@@H](C)O)C(=O)N3)NC2=O)C(=O)N[C@@H](CCCCN)C(=O)N[C@@H](CC(C)C)C(=O)N[C@@H](Cc2c[nH]c3ccccc23)C(=O)N1)[C@@H](C)CC)C(N)=O` [compound 99] are 0.15 µM, 2.5 µM, 0.008 µM, 0.05 µM and 19.
